Laboratory results as given in PMC10004777 (Molecules, 2023).

Assays:
HepG2 cells = test: Cell viability (MTT) assay, HepG2; assay type: cell-based; settings: for anti-proliferation activity on HepG2 (in words): HepG2, 48 h
Description: (§1) To investigate the selectivity of these derivatives towards different tumor cell lines, we also selected HepG2 and osteosarcoma cell line SJSA-1 cells to evaluate the anti-proliferation activity of the derivatives. […] Except for compounds A2 and A11, the effects of other compounds on SJSA-1 were not strong.
(§2) The cell lines present in this study were obtained from Procell Life Science & Technology Co. Ltd. MCF-7, HepG2 and SJSA-1 cells were cultured in DMEM medium (DMEM, Gibco) supplemented with 10% fetal bovine serum (FBS, Gibco), 1% penicillin-streptomycin (Hyclone) at 37℃ in a humid environment with 5% CO2. HK-2 cells were cultured in DMEM/F12 (1:1) medium and placed in incubators in the same environment.
(§3) Cell viability was determined by MTT assay. MCF-7, HepG2, SJSA-1 and HK-2 cells (6 × 10^3 cells /well) were seeded in 96-well plates with serum-free medium for 24 h. […] After 48 or 72 h, 10 μL MTT (5 mg/mL, Beyotime) was added and incubated at 37 °C for 4 h. Then 100 μL of lysate was added. After complete dissolution of the crystal, the absorbance was measured at 540 nm and expressed as the average percentage of absorbance between treated and control cells. The value for control cells was set at 100%. Cell survival rate was calculated as the ratio of the absorbance of the cells and negative control after minus the blank absorbance respectively.

[1] = tested on: MCF-7 breast cancer cells; test: Cell viability (MTT) assay, MCF-7; assay type: cell-based; settings: for anti-proliferation activity on MCF-7 compared with GAA: MCF-7, 48 h
Description: MCF-7 is a commonly used tumor cell line.
as §2, §3

[2] = tested on: osteosarcoma cell line SJSA-1; test: Cell viability (MTT) assay, SJSA-1; assay type: cell-based
Description: as §1, §2, §3

HK-2 cells = test: Cell viability (MTT) assay, HK-2 normal cells (cytotoxicity); assay type: cell-based
Description: as §2, §3

Row | SMILES | Viability of Cells (% of Control) (HepG2 cells; 25 µM) | Viability of Cells (% of Control) (HepG2 cells; 50 µM) | anti-proliferation activity on HepG2 (in words) (HepG2 cells) | melting point [°C] | Viability of Cells (% of Control) ([1]; 25 µM) | Viability of Cells (% of Control) ([1]; 100 µM) | inhibition at 50 µM ([1]; Homo sapiens, MCF7, MCF-7, 50 µM, 48 h, read-out: inhibition rate of MCF-7) [%] | anti-proliferation activity on MCF-7 compared with GAA [1] | Viability of Cells (% of Control) ([2]; 50 µM) | Viability of Cells (% of Control) ([2]; 100 µM) | toxicity to HK2 cells (in words) (HK-2 cells) | Viability of Cells (% of Control) (HK-2 cells; 50 µM) | Viability of Cells (% of Control) (HK-2 cells; 100 µM) | Viability of Cells (% of Control) ([1]; 50 µM)
1 | C[C@H](CC(=O)C[C@@H](C)[C@H]1C[C@H](O)[C@@]2(C)C3=C(C(=O)C[C@]12C)[C@@]1(C)CCC(=O)C(C)(C)[C@@H]1C[C@@H]3O)C(=O)NCc1ccc(F)cc1 [Compound A6, (4-Fluorobenzyl)-(7β,15α,25R)-7,15-Dihydroxy-3,11,23-Trioxolanost-8-en-26-oic Amide] | 84.0 ± 0.8 % of Control | 76.6 ± 1.6 % of Control | weaker anti-proliferation effect | 178.4 to 179.3 | 77.1 ± 4.2 % of Control | 26.4 ± 1.5 % of Control | 63.6 | significant anti-proliferation activities | 92.6 ± 3.1 % of Control | 65.8 ± 3.2 % of Control | some toxicity | 89.6 ± 6.9 % of Control | 80.2 ± 9.0 % of Control | 
2 | Cc1ccc(NC(=O)[C@H](C)CC(=O)C[C@@H](C)[C@H]2C[C@H](O)[C@@]3(C)C4=C(C(=O)C[C@]23C)[C@@]2(C)CCC(=O)C(C)(C)[C@@H]2C[C@@H]4O)cc1 [Compound A3, (4-Methylphenyl)-(7β,15α,25R)-7,15-Dihydroxy-3,11,23-Trioxolanost-8-en-26-oic Amide] | 90.1 ± 1.1 % of Control | 76.3 ± 1.1 % of Control |  | 174.3 to 175.5 | 110.9 ± 2.2 % of Control | 78.7 ± 3.9 % of Control |  |  | 85.3 ± 1.1 % of Control | 83.3 ± 3.0 % of Control |  |  |  | 114.3 ± 1.2 % of Control
3 | Cc1ccc(CCNC(=O)[C@H](C)CC(=O)C[C@@H](C)[C@H]2C[C@H](O)[C@@]3(C)C4=C(C(=O)C[C@]23C)[C@@]2(C)CCC(=O)C(C)(C)[C@@H]2C[C@@H]4O)cc1 [Compound A10, (4-Methylphenethyl)-(7β,15α,25R)-7,15-Dihydroxy-3,11,23-Trioxolanost-8-en-26-oic Amide] | 57.9 ± 0.5 % of Control | 58.8 ± 1.4 % of Control |  | 221.9 to 223 | 120.8 ± 4.8 % of Control | 104.1 ± 2.2 % of Control |  |  | 80.0 ± 2.7 % of Control | 75.6 ± 4.8 % of Control |  | 110.9 ± 9.6 % of Control | 91.1 ± 5.5 % of Control | 118.3 ± 6.0 % of Control
4 | C[C@H](CC(=O)C[C@@H](C)[C@H]1C[C@H](O)[C@@]2(C)C3=C(C(=O)C[C@]12C)[C@@]1(C)CCC(=O)C(C)(C)[C@@H]1C[C@@H]3O)C(=O)N1CCN(c2ccccc2)CC1 [Compound A15, (4-Phenylpiperazin-1-yl)-(7β,15α,25R)-7,15-Dihydroxy-3,11,23-Trioxolanost-8-en-26-oic Amide] | 77.1 ± 2.1 % of Control | 99.3 ± 0.2 % of Control | weaker anti-proliferation effect | 229.4 to 229.9 | 74.3 ± 5.2 % of Control | 66.5 ± 1.4 % of Control |  | significant anti-proliferation activities | 75.9 ± 0.9 % of Control | 83.5 ± 0.8 % of Control |  | 123.3 ± 5.5 % of Control | 111.0 ± 8.7 % of Control | 70.4 ± 1.5 % of Control
5 | CCCCNC(=O)[C@H](C)CC(=O)C[C@@H](C)[C@H]1C[C@H](O)[C@@]2(C)C3=C(C(=O)C[C@]12C)[C@@]1(C)CCC(=O)C(C)(C)[C@@H]1C[C@@H]3O [Compound A1, (n-butyl)-(7β,15α,25R)-7,15-Dihydroxy-3,11,23-Trioxolanost-8-en-26-oic Amide] | 90.5 ± 1.1 % of Control | 87.2 ± 3.1 % of Control |  | 120.7 to 121.5 | 96.6 ± 6.2 % of Control | 78.7 ± 3.4 % of Control |  |  | 87.9 ± 0.9 % of Control | 74.0 ± 3.8 % of Control |  |  |  | 114.3 ± 1.2 % of Control
6 | C[C@H](CC(=O)C[C@@H](C)[C@H]1C[C@H](O)[C@@]2(C)C3=C(C(=O)C[C@]12C)[C@@]1(C)CCC(=O)C(C)(C)[C@@H]1C[C@@H]3O)C(=O)NC1Cc2ccccc2C1 [Compound A9, (2,3-Dihydro-1H-inden-2-yl)-(7β,15α,25R)-7,15-Dihydroxy-3,11,23-Trioxolanost-8-en-26-oic Amide] | 64.2 ± 1.4 % of Control | 52.4 ± 2.1 % of Control | potent anti-proliferation activity | 199.7 to 200.3 | 87.5 ± 7.6 % of Control | 40.3 ± 7.8 % of Control |  | significant anti-proliferation activities | 99.2 ± 2.6 % of Control | 89.6 ± 3.8 % of Control | some toxicity | 79.0 ± 2.9 % of Control | 80.1 ± 2.8 % of Control | 53.3 ± 6.9 % of Control
7 | Cc1ccc(CNC(=O)[C@H](C)CC(=O)C[C@@H](C)[C@H]2C[C@H](O)[C@@]3(C)C4=C(C(=O)C[C@]23C)[C@@]2(C)CCC(=O)C(C)(C)[C@@H]2C[C@@H]4O)cc1 [Compound A5, (4-methylbenzyl)-(7β,15α,25R)-7,15-Dihydroxy-3,11,23-Trioxolanost-8-en-26-oic Amide] | 78.5 ± 3.0 % of Control | 69.1 ± 1.9 % of Control |  | 208.7 to 209 | 115.0 ± 2.9 % of Control | 99.5 ± 1.0 % of Control |  |  | 75.0 ± 2.6 % of Control | 64.5 ± 1.2 % of Control |  | 110.4 ± 13.1 % of Control | 97.0 ± 8.8 % of Control | 107.4 ± 6.7 % of Control
8 | C[C@H](CC(=O)C[C@@H](C)[C@H]1C[C@H](O)[C@@]2(C)C3=C(C(=O)C[C@]12C)[C@@]1(C)CCC(=O)C(C)(C)[C@@H]1C[C@@H]3O)C(=O)N1CCN(C)CC1 [Compound A13, (4-Methylpiperazin-1-yl)-(7β,15α,25R)-7,15-Dihydroxy-3,11,23-Trioxolanost-8-en-26-oic Amide] | 104.4 ± 2.0 % of Control | 99.3 ± 4.9 % of Control |  | 173.2 to 174.9 | 113.6 ± 2.1 % of Control | 102.7 ± 3.5 % of Control |  |  | 87.6 ± 3.8 % of Control | 77.6 ± 3.5 % of Control |  |  |  | 107.3 ± 9.1 % of Control
9 | CCN1CCN(C(=O)[C@H](C)CC(=O)C[C@@H](C)[C@H]2C[C@H](O)[C@@]3(C)C4=C(C(=O)C[C@]23C)[C@@]2(C)CCC(=O)C(C)(C)[C@@H]2C[C@@H]4O)CC1 [Compound A14, (4-Ethylpiperazin-1-yl)-(7β,15α,25R)-7,15-Dihydroxy-3,11,23-Trioxolanost-8-en-26-oic Amide] | 95.6 ± 1.9 % of Control | 99.3 ± 0.2 % of Control |  | 198.5 to 199.4 | 106.2 ± 4.7 % of Control | 96.2 ± 5.0 % of Control |  |  | 70.4 ± 1.6 % of Control | 47.3 ± 2.1 % of Control |  |  |  | 102.2 ± 5.9 % of Control
10 | C[C@H](CC(=O)C[C@@H](C)[C@H]1C[C@H](O)[C@@]2(C)C3=C(C(=O)C[C@]12C)[C@@]1(C)CCC(=O)C(C)(C)[C@@H]1C[C@@H]3O)C(=O)Nc1ccc(Cl)cc1 [Compound A4, (4-Chlorophenyl)-(7β,15α,25R)-7,15-Dhydroxy-3,11,23-Trioxolanost-8-en-26-oic Amide] | 87.7 ± 1.9 % of Control | 72.0 ± 1.9 % of Control |  | 184.9 to 185.3 | 116.4 ± 4.8 % of Control | 108.9 ± 1.1 % of Control |  |  | 83.9 ± 5.4 % of Control | 57.4 ± 4.2 % of Control |  |  |  | 120.7 ± 2.0 % of Control
